Data published in US20240132498A1, “CRYSTALLINE FORMS OF 5-(3,4-DIFLUOROBENZYL)-8-((1R,4R)-4-METHYLCYCLOHEXYL)-6,9-DIOXO-2,5,8-TRIAZASPIRO[3.5]NONANE-2-CARBALDEHYDE” (Cytokinetics, Incorporated, priority 2022, published 2024).

What was measured:
[1] = Monkey single dose pharmacokinetics; assay type: in vivo; details: male, plasma, iv, Cynomolgus Monkey; for Vd: read-out: Vss
Procedure: Non-naïve Male Cynomolgus Monkey (2-5 years of age, body weight 2-5 kg) used in this study were obtained from Topgene Biotechnology. All animals for IV administration had free access to food and water; all animals for PO were fasted overnight prior to dosing and were fed approximately 6 hours after dosing. The IV dose solution was prepared in 10% DMA/50% PG/40% HPOCD solution (40% w/v aqueous HPOCD) at a concentration of 1.0 mg/mL. The oral dose suspension was prepared by suspending the compound in 0.5% HPMC/0.1% Tween 80 in distilled water at a concentration of 0.2 mg/mL. Concentrations of IV and PO doses were measured at the end of the study. PK parameters were calculated using the nominal dose values if the measured values were within 20% of the nominal values. Blood samples were collected by venipuncture of peripheral veins except the dosing vein at pre-dose, 5 15, 30 min, 1, 2, 4, 6, 8, 24 and 48 h post-dose. Blood samples were centrifuged and resultant plasma was frozen for bioanalysis. Plasma samples were stored at −80° C. before analysis. Plasma samples were analyzed for compound concentrations using the LC/MS/MS method. Briefly, a 50 μL aliquot of each plasma sample was mixed with 100 μL of acetonitrile that contained an internal standard. The mixture was vortexed and centrifuged. Ten (10) p L of the resulting solution was injected onto a reverse-phase C18 column and the resultant peaks detected on a LC/MS/MS equipped with a turbo ionspray ionization source. Sample concentrations below the limit of quantification (BLQ) were treated as zero for PK calculations. PK parameters were estimated from individual animals using noncompartmental analysis of the concentration-time data (Phoenix WinNonLin software, version 64; Pharsight, Mountain View, CA). The elimination rate constant (k) was calculated as the absolute value of the slope of the linear regression of logarithm (log) of the concentration versus time for the last three data points of the concentration-time profiles. Apparent elimination half-life (t½) values were calculated as 1n(2)/k. Area under the concentration-time curve (AUC) values were estimated using linear trapezoidal method. AUC values were calculated from the dosing time to the last measurable concentration. AUC∞ values were calculated as the sum of the corresponding AUC and the ratio of the last detectable concentration divided by k. Plasma clearance (CL) was calculated from Dose/AUC.. Mean resident time extrapolated to infinity (MRT∞) was estimated by moment analysis. Vss was calculated from MRT. X CL. Maximum concentration (Cmax) and time to reach Cmax (tmax) were recorded as observed. As this was a cross-over study, bioavailability was calculated dAUC∞,po/dAUC∞,iv ×100% where dAUC was the dose normalized AUC value from the same animal given IV and PO dose. Compounds tested were prepared in accordance with the synthetic procedures described herein.

[2] = Mouse single dose pharmacokinetics; assay type: in vivo; details: plasma, iv, 0.5 mg/kg, male C57BL/6 mice; for Vd: read-out: Vss
Procedure: Male C57BL/6 mice (18-25 g, 6-8 weeks old) were obtained from Zhejiang Vital River Laboratory Animal Technology Co., Ltd. All animals for IV administration had free access to food and water. The IV dosing was performed through tail vein. The IV dose solution for the Test Articles was prepared in 10% DMA/20% PG/70% HPOCD solution (40% w/v aqueous HPOCD) at a concentration of 0.1 mg/mL. The oral dosing suspension was prepared by suspending Test Article in 0.5% HPMC/0.1% Tween 80 in water at a concentration 0.2 mg/mL. Concentrations of IV and PO doses were measured at the end of the study. Pharmacokinetic (PK) parameters were calculated using the nominal dose values if the measured values were within 20% of the nominal values. A group of 15 mice received the IV dose where the volume was 5 mL/kg. Another group of 15 mice received by oral gavage of Test Article at 1 mg/kg. The oral dose volume was 5 mL/kg. Sparse blood samples were collected from groups of three mice via retro-orbital bleeding, placed into a K2EDTA microtainer tube and maintained on ice until centrifugation to obtain plasma. Each designated group of mice were bled at two-time points. The time points were predose (PO only), 5 (IV only), 15, 30 minutes, 1, 2, 4, 6, 8 and 24 hours postdose. Blood samples were centrifuged and the collected plasma was stored at −80° C. until analysis. Plasma samples were analyzed for Test Article concentrations using an LC/MS/MS method. Briefly, a 50 p L aliquot of each plasma sample was mixed with 100 μL of acetonitrile that contained an internal standard (IS). The mixture was vortexed and centrifuged. Ten (10) p L of the resulting solution was injected onto a reverse-phase C18 column and the resultant peaks detected on a LC/MS/MS equipped with a turbo ionspray ionization source. Sample concentrations below the limit of quantification (BLQ) were treated as zero for PK calculations. Composite PK parameters were estimated from a maximum of two sampling points per mouse and three mice per sampling point and the sparse data option of WinNonlin was used for noncompartmental analysis of the concentration-time data (Phoenix WinNonLin software, version 64; Pharsight, Mountain View, CA). The elimination rate constant (k) was calculated as the absolute value of the slope of the linear regression of logarithm of the concentration versus time for the last three data points of the concentration-time profiles. Apparent elimination half-life (t½) values were calculated as 1n(2)/k. Area under the concentration-time curve (AUC) values were estimated using linear trapezoidal method. AUC values were calculated from the dosing time to the last measurable concentration. AUC∞ values were calculated as the sum of the corresponding AUC and the ratio of the last detectable concentration divided by k. Plasma clearance (CL) was calculated from Dose/AUC. Mean resident time (MRT) was estimated by moment analysis. Volume of distribution at steady state (Vss) was calculated from MRT∞×CL. Maximum concentration (Cmax) and time to reach Cmax (tmax) were recorded as observed. Bioavailability was calculated dAUC∞,po/dAU∞.iv×100% where dAUC was the dose normalized AUC value. Compounds tested were prepared in accordance with the synthetic procedures described herein.

clearance [1] [mL/min/kg]	half-life [1] [h]	Vd [1] [L/kg]	clearance [2] [mL/min/kg]	half-life [2] [h]	Vd [2] [L/kg]	SMILES
11.6	9.94	8.89	28.4	1.77	4.2	C[C@H]1CC[C@H](N2CC(=O)N(Cc3ccc(F)c(F)c3)C3(CN(C=O)C3)C2=O)CC1 [Compound 1, 5-(3,4-difluorobenzyl)-8-((1r,4r)-4-methylcyclohexyl)-6,9-dioxo-2,5,8-triazaspiro[3.5]nonane-2-carbaldehyde]
6.92	18.1	12.4	–	–	–	CC(=O)N1CC2(C1)C(=O)N(c1ccc(C#N)cc1F)CC(=O)N2Cc1ccc(C(F)(F)F)cc1 [Comparator D, 4-(2-acetyl-6,9-dioxo-5-(4-(trifluoromethyl)benzyl)-2,5,8-triazaspiro[3.5]nonan-8-yl)-3-fluorobenzonitrile]
13.8	11.6	12	4.67	2.6	1.39	O=C1[C@H](C2COC2)N(Cc2ccc(C(F)(F)F)cc2)C(=O)CN1c1ncc(Cl)cc1F [Comparator C, (S)-1-(5-chloro-3-fluoropyridin-2-yl)-3-(oxetan-3-yl)-4-(4-(trifluoromethyl)benzyl)piperazine-2,5-dione, reference compound]
3.4	16	4.35	11.6	2.8	3.28	O=CN1CC2(C1)C(=O)N([C@H]1CC[C@H](C(F)F)CC1)CC(=O)N2Cc1ccc(C(F)(F)F)cc1 [Comparator E, 8-((1r,4r)-4-(difluoromethyl)cyclohexyl)-6,9-dioxo-5-(4-(trifluoromethyl)benzyl)-2,5,8-triazaspiro[3.5]nonane-2-carbaldehyde]
